Results published in patent US8344181B2, “N-2 adamantanyl-2-phenoxy-acetamide derivatives as 11-beta hydroxysteroid dehydrogenase inhibitors” (Janssen Pharmaceutica N.V., priority 2004, dated 2013).

Legend:
11β-HSD2 = target: T1, 11β-HSD2 (Homo sapiens, UniProt P80365); experiment: Cellular assay of 11β-HSD2 activity in HepG2 cells; type: cell-based; settings: 4 hour pre-incubation, 10^-5M to 10^-10M, read-out: HSD2 cellular HepG2 Score
T1 construct: endogenous in cells; host or cells: HepG2 (ATCC HB-8065)
T1 sequence (P80365 1-405): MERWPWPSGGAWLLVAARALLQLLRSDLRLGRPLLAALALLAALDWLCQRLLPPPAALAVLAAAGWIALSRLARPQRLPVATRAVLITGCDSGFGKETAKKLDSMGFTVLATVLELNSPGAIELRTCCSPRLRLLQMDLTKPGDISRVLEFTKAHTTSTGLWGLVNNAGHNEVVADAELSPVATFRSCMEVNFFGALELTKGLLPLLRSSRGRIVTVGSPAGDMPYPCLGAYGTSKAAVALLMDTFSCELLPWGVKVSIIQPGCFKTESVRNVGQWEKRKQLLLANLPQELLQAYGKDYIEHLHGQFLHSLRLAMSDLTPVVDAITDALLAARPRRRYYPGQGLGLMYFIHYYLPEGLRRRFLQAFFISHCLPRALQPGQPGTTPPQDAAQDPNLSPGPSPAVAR
Description: The effects on 11β-HSD2 activity was studied in HepG2 and LCC-PK1-cells HepG2-cells (ATCC HB-8065) were seeded in 12 well plates at a density of 100,000 cells/ml and grown at 37° C. in a humidified 5% CO2 atmosphere in MEM-Rega-3 medium supplemented with 10% heat inactivated foetal calf serum, 2 mM L-glutamine and sodium bicarbonate). Medium was refreshed twice a week.
Following a 4 hour pre-incubation with test compound, 0.5 μCi ^3H-cortisol or corticosterone, was added to the cultures. One hour later, the medium was extracted on Extrelut^3-columns with 15 ml diethyl ether and the extract was analysed by HPLC as described above.
(§1) As for the enzymatic assays, the compounds to be tested were taken from a stock solution and tested at a final concentration ranging from 10^−5M to 10^−10M. From the thus obtained dose response curves, the pIC50 value was calculated and scored as follows; Score 1=pIC50 value<5, Score 2=pIC50 value in the range of 5 to 6, Score 3=pIC50 value>6. (in this table NT stands for Not Tested).

11β-HSD1 = target: T2, 11β-HSD1 (Mus musculus, UniProt P50172); experiment: Cellular assay of 11β-HSD1 activity in differentiated 3T3-L1 cells; type: cell-based; settings: 4 hour pre-incubation, 10^-5M to 10^-10M, read-out: HSD1 cellular 3T3-L1 Score
T2 construct: endogenous in cells; host or cells: 3T3-L1 (ATCC-CL-173), differentiated into adipocytes
T2 sequence (P50172 whole entry): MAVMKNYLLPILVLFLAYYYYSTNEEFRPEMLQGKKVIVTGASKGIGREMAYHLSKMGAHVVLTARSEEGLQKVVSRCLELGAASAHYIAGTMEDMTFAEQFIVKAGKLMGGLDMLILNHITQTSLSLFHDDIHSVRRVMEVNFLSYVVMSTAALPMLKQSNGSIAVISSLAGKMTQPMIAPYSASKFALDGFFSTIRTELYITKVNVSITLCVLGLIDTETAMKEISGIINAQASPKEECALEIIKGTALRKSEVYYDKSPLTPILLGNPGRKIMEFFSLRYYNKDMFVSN
Description: The effects on 11β-HSD1 activity was measured in differentiated 3T3-L1 cells and rat hepatocytes.
Mouse fibroblast 3T3-L1 cells (ATCC-CL-173) were seeded at a density of 16500 cells/ml in 12 well plates and grown for 7 days in DMEM medium (supplemented with 10% heat inactivated foetal calf serum, 2 mM glutamine and 25 mg gentamycin) at 37° C. in a humidified 5% CO2 atmosphere. Medium was refreshed twice a week. Fibroblasts were differentiated into adipocytes at 37° C. in a 5% CO2 humidified atmosphere in growth medium containing 2 μg/ml insulin, 55 μg/ml IBMX and 39.2 μg/ml dexamethasone.
Primary hepatocytes from male rats were seeded on normal Falcon 12 well plates at a density of 250000 cells/well and incubated for 16 hours at 37° C. in a 5% CO2 humidified atmosphere in DMEM-HAM's F12 medium containing 5% Nu-serum, 100 U/ml penicillin, 100 μg/ml streptomycin, 0.25 μg/ml amphotericin B, 50 μg/ml gentamycin sulfate, 5 μg/ml insulin and 392 ng/ml dexamethasone. Following a 4 hour pre-incubation with test compound, 0.5 μCi ^3H-cortisone or dehydrocorticosterone, was added to the 3T3-L1 cultures. One hour later, the medium was extracted on Extrelut^3-columns with 15 ml diethyl ether and the extract was analysed by HPLC as described above. The effects of JNJ-compounds on rat hepatocyte HSD1 activity was measured after an incubation period of 90 minutes with 0.5 μCi^3H-dehydrocorticosterone. Corticosterone formation was analysed by HPLC.
as §1

Compound | IC50 (11β-HSD2) | IC50 (11β-HSD1)
Cc1ccc(NC(C)(C)C(=O)N[C@H]2[C@@H]3CC4C[C@H]2C[C@](O)(C4)C3)cc1 [Compound 27] | > 10000 nM | < 1000 nM
Cc1c(C)c2c(c(C)c1O)CCC(C)(C(=O)N[C@H]1[C@@H]3CC4C[C@H]1C[C@](O)(C4)C3)O2 (some centres unmarked) [Compound 28] | < 1000 nM | < 1000 nM
CC(=O)N[C@@]12CC3C[C@H](C1)[C@H](NC(=O)C(C)(C)Oc1ccc(Cl)cc1C)[C@@H](C3)C2 [Compound 29] | < 1000 nM | < 1000 nM
Cc1cc(Cl)ccc1OC(C)(C)C(=O)N[C@H]1[C@@H]2CC3C[C@H]1C[C@](NS(=O)(=O)N(C)C)(C3)C2 [Compound 30] | 1000 to 10000 nM | < 1000 nM
Cc1cc(Cl)ccc1OC(C)(C)C(=O)N[C@H]1[C@@H]2CC3C[C@H]1C[C@](NC(=O)CCl)(C3)C2 [Compound 31] | 1000 to 10000 nM | < 1000 nM
Cc1cc(Cl)ccc1OC(C)(C)C(=O)N[C@H]1[C@@H]2CC3C[C@H]1C[C@](N)(C3)C2 [Compound 32] | > 10000 nM | < 1000 nM
Cc1cc(Cl)ccc1OC(C)(C)C(=O)N[C@H]1[C@@H]2CC3C[C@H]1C[C@](NS(C)(=O)=O)(C3)C2 [Compound 33] | 1000 to 10000 nM | < 1000 nM
Cc1ccccc1NC(C)(C)C(=O)N[C@H]1[C@@H]2CC3C[C@H]1C[C@](O)(C3)C2 [Compound 34] | 1000 to 10000 nM | < 1000 nM
Cc1cc(Cl)ccc1OC(C)(C)C(=O)N[C@H]1[C@@H]2CC3C[C@H]1C[C@](NC(=O)NC(C)(C)C)(C3)C2 [Compound 71] |  | 1000 to 10000 nM
COC(=O)c1cccc(NC(C)(C)C(=O)N[C@H]2[C@@H]3CC4C[C@H]2C[C@](F)(C4)C3)c1 [Compound 78] |  | < 1000 nM
COC(=O)c1ccc(NC(C)(C)C(=O)N[C@H]2[C@@H]3CC4C[C@H]2C[C@](O)(C4)C3)cc1 [Compound 79] |  | < 1000 nM
CC(C)(Nc1cccc(C(=O)O)c1)C(=O)N[C@H]1[C@@H]2CC3C[C@H]1C[C@](F)(C3)C2 [Compound 82] |  | 1000 to 10000 nM
CC(C)(Nc1cccc(C(=O)O)c1)C(=O)N[C@H]1[C@@H]2CC3C[C@H]1C[C@](O)(C3)C2 [Compound 86] |  | 1000 to 10000 nM
COC(=O)c1ccc(NC(C)(C)C(=O)NC2[C@@H]3CC4C[C@H]2C[C@](F)(C4)C3)cc1 (some centres unmarked) [Compound 96] |  | 1000 to 10000 nM
CC(=O)N[C@@]12CC3C[C@H](C1)C(NC(=O)C(C)(C)Nc1cccc(C(=O)O)c1)[C@@H](C3)C2 (some centres unmarked) [Compound 97] |  | > 10000 nM
CC(C)(Oc1cccc(Br)c1)C(=O)N[C@H]1[C@@H]2CC3C[C@H]1C[C@](NC(=O)OCCCl)(C3)C2 [Compound 98] |  | < 1000 nM
CC(C)(Oc1ccccc1Cl)C(=O)N[C@H]1[C@@H]2CC3C[C@H]1C[C@](N)(C3)C2 [Compound 99] |  | < 1000 nM
CC(C)(Oc1cccc(C(F)(F)F)c1Cl)C(=O)N[C@H]1[C@@H]2CC3C[C@H]1C[C@](N)(C3)C2 [Compound 100] |  | < 1000 nM
CC(C)(Oc1cc(C(F)(F)F)ccc1Cl)C(=O)N[C@H]1[C@@H]2CC3C[C@H]1C[C@](N)(C3)C2 [Compound 101] |  | < 1000 nM
CC(C)(Oc1ccccc1C(F)(F)F)C(=O)N[C@H]1[C@@H]2CC3C[C@H]1C[C@](N)(C3)C2 [Compound 102] |  | < 1000 nM
Cc1ccccc1OC(C)(C)C(=O)N[C@H]1[C@@H]2CC3C[C@H]1C[C@](N)(C3)C2 [Compound 103] |  | < 1000 nM
COc1cc(F)ccc1OC(C)(C)C(=O)N[C@H]1[C@@H]2CC3C[C@H]1C[C@](N)(C3)C2 [Compound 105] |  | < 1000 nM

Further lines, results first:

IC50 (11β-HSD2) | IC50 (11β-HSD1) | Compound
< 1000 nM | < 1000 nM | Cc1cc(Cl)ccc1OC(C)(C)C(=O)N[C@H]1[C@@H]2CC3C[C@H]1C[C@](O)(C3)C2 [Compound 1]
> 10000 nM | < 1000 nM | Cc1cc(C)cc(OC(C)(C)C(=O)NC2C3CC4CC(C3)CC2C4)c1 (centres unmarked) [Compound 2]
< 1000 nM | < 1000 nM | CC(C)(C(=O)N[C@H]1[C@@H]2CC3C[C@H]1C[C@](O)(C3)C2)S(=O)(=O)c1ccc(Cl)cc1 [Compound 3]
1000 to 10000 nM | < 1000 nM | CC(C)(Sc1ccc(Cl)cc1)C(=O)N[C@H]1[C@@H]2CC3C[C@H]1C[C@](O)(C3)C2 [Compound 4]
 | < 1000 nM | CC(C)(C(=O)N[C@H]1[C@@H]2CC3C[C@H]1C[C@](O)(C3)C2)[S+]([O-])c1ccc(Cl)cc1 (some centres unmarked) [Compound 5]
> 10000 nM | < 1000 nM | CN1CC(C(=O)N[C@@H]2[C@@H]3CC4C[C@H]2C[C@@](O)(C4)C3)Oc2ccccc21 (some centres unmarked) [Compound 6]
> 10000 nM | < 1000 nM | Cc1c(C(=O)N[C@H]2[C@@H]3CC4C[C@H]2C[C@](O)(C4)C3)oc2ccccc12 [Compound 7]
1000 to 10000 nM | < 1000 nM | O=C(N[C@H]1[C@@H]2CC3C[C@H]1C[C@](O)(C3)C2)C1COc2ccccc2O1 (some centres unmarked) [Compound 8]
1000 to 10000 nM | < 1000 nM | Cc1cccc(OC(C)(C)C(=O)N[C@H]2[C@@H]3CC4C[C@H]2C[C@](O)(C4)C3)c1 [Compound 10]
1000 to 10000 nM | < 1000 nM | Cc1ccc2c(c1)NCC(C(=O)N[C@H]1[C@@H]3CC4C[C@H]1C[C@](O)(C4)C3)O2 (some centres unmarked) [Compound 11]
< 1000 nM | < 1000 nM | Cc1ccccc1OC(C)(C)C(=O)N[C@H]1[C@@H]2CC3C[C@H]1C[C@](O)(C3)C2 [Compound 12]
< 1000 nM | < 1000 nM | Cc1ccc(OC(C)(C)C(=O)N[C@H]2[C@@H]3CC4C[C@H]2C[C@](O)(C4)C3)cc1 [Compound 13]
< 1000 nM | < 1000 nM | COc1cccc(OC(C)(C)C(=O)N[C@H]2[C@@H]3CC4C[C@H]2C[C@](O)(C4)C3)c1 [Compound 14]
< 1000 nM | < 1000 nM | CC(C)(Oc1ccccc1Br)C(=O)N[C@H]1[C@@H]2CC3C[C@H]1C[C@](O)(C3)C2 [Compound 15]
< 1000 nM | < 1000 nM | Cc1cc(C)cc(OC(C)(C)C(=O)N[C@H]2[C@@H]3CC4C[C@H]2C[C@](O)(C4)C3)c1 [Compound 16]
1000 to 10000 nM | < 1000 nM | COc1cc(OC)cc(OC(C)(C)C(=O)N[C@H]2[C@@H]3CC4C[C@H]2C[C@](O)(C4)C3)c1 [Compound 17]
< 1000 nM | < 1000 nM | CN(C)c1cccc(OC(C)(C)C(=O)N[C@H]2[C@@H]3CC4C[C@H]2C[C@](O)(C4)C3)c1 [Compound 18]
< 1000 nM | < 1000 nM | CC(=O)Nc1cccc(OC(C)(C)C(=O)N[C@H]2[C@@H]3CC4C[C@H]2C[C@](O)(C4)C3)c1 [Compound 19]
< 1000 nM | < 1000 nM | CC(C)(Oc1cccc(C(F)(F)F)c1)C(=O)N[C@H]1[C@@H]2CC3C[C@H]1C[C@](O)(C3)C2 [Compound 20]
< 1000 nM | < 1000 nM | O=C(N[C@H]1[C@@H]2CC3C[C@H]1C[C@](O)(C3)C2)[C@H]1CCc2cc(F)ccc2O1 [Compound 21]
1000 to 10000 nM | < 1000 nM | O=C(N[C@H]1[C@@H]2CC3C[C@H]1C[C@](O)(C3)C2)[C@@H]1CCc2cc(F)ccc2O1 [Compound 22]
> 10000 nM | < 1000 nM | O=C(N[C@H]1[C@@H]2CC3C[C@H]1C[C@](O)(C3)C2)c1cc2ccccc2o1 [Compound 23]
1000 to 10000 nM | < 1000 nM | O=C(N[C@H]1[C@@H]2CC3C[C@H]1C[C@](O)(C3)C2)C1Cc2ccccc2O1 (some centres unmarked) [Compound 24]
< 1000 nM | < 1000 nM | O=C(N[C@H]1[C@@H]2CC3C[C@H]1C[C@](O)(C3)C2)C1CCc2ccccc2O1 (some centres unmarked) [Compound 26]
